Experimental data published in PubChem BioAssay AID2060897 (Molecular Pharmacology Branch, DTP, NCI, 2025).
pIC50: −log10 of the molar value. “And” between values parts separate entries of the source, which are not always exact repeats. Identical values can stand only once.

Test system: 966289-007-R4-J1-PDC complex spheroid viability
Test: Anticancer human tumor 966289-007-R4-J1-PDC patient-derived pancreatic adenocarcinoma cell line growth inhibition [RAS]
Conditions: for viability, T/C: stronger effect = lower value
Method in brief: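 Tumour cells grown as complex spheroids with HUVEC endothelial cells and mesenchymal stem cells, treated with RAS pathway inhibitor combinations. Each agent spans half-log steps from near clinical Cmax, or 10 microM where Cmax is unknown.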
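Also: spheroids exposed to agents for one week before readout.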
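For viability, T/C in this document: percent viability relative to DMSO vehicle control wells as 100%.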

Q: With CCc1c2c(nc3ccc(O)cc13)-c1cc3c(c(=O)n1C2)COC(=O)[C@]3(O)CC + CCn1c(-c2cccnc2C(C)OC)c2c3cc(ccc31)N1CCOC(CC(NC(=O)C(C(C)C)N(C)C(=O)C3(F)CCN(C(=O)C#CC(C)(C)N(C)C)CC3)C(=O)N3CCCC(N3)C(=O)OCC(C)(C)C2)C1 as the compound, how does the pIC50 (curve of first compound, second compound 0.000949 µM) read?
A: 8.75

Q: What about the pIC50 (curve of first compound, second compound 0.003 µM) of the same compound?
A: 8.76

Q: What about the pIC50 (curve of first compound, second compound 0.00949 µM) of the same compound?
A: 8.79

Q: And the pIC50 (curve of first compound, second compound 0.03 µM)?
A: 8.93

Q: And the pIC50 (curve of first compound, second compound 0.0949 µM)?
A: 9.02

Q: And the pIC50 (curve of first compound, second compound 0.3 µM)?
A: > 9.02

Q: And the viability, T/C (second compound 0.000949 µM, first compound 0.000949 µM)?
A: 103%

Q: What about the viability, T/C (second compound 0.000949 µM, first compound 0.003 µM) of the same compound?
A: 4.09%

Q: And the viability, T/C (second compound 0.000949 µM, first compound 0.00949 µM)?
A: 0.96%

Q: What about the viability, T/C (second compound 0.000949 µM, first compound 0.03 µM) of the same compound?
A: 0.65%

Q: What about the viability, T/C (second compound 0.000949 µM, first compound 0.0949 µM) of the same compound?
A: 0.49%

Q: And the viability, T/C (second compound 0.000949 µM, first compound 0.3 µM)?
A: 0.69%

Q: What about the viability, T/C (second compound 0.003 µM, first compound 0.000949 µM) of the same compound?
A: 99.8%

Q: And the viability, T/C (second compound 0.003 µM, first compound 0.003 µM)?
A: 4.15%

Q: And the viability, T/C (second compound 0.003 µM, first compound 0.00949 µM)?
A: 0.79%

Q: What about the viability, T/C (second compound 0.003 µM, first compound 0.03 µM) of the same compound?
A: 0.63%

Q: And the viability, T/C (second compound 0.003 µM, first compound 0.0949 µM)?
A: 0.64%

Q: And the viability, T/C (second compound 0.003 µM, first compound 0.3 µM)?
A: 0.67%

Q: What about the viability, T/C (second compound 0.00949 µM, first compound 0.000949 µM) of the same compound?
A: 89.8%

Q: What about the viability, T/C (second compound 0.00949 µM, first compound 0.003 µM) of the same compound?
A: 4.69%

Q: And the viability, T/C (second compound 0.00949 µM, first compound 0.00949 µM)?
A: 1.12%

Q: And the viability, T/C (second compound 0.00949 µM, first compound 0.03 µM)?
A: 0.52%

Q: And the viability, T/C (second compound 0.00949 µM, first compound 0.0949 µM)?
A: 0.51%

Q: What about the viability, T/C (second compound 0.00949 µM, first compound 0.3 µM) of the same compound?
A: 0.56%

Q: And the viability, T/C (second compound 0.03 µM, first compound 0.000949 µM)?
A: 60.8%

Q: And the viability, T/C (second compound 0.03 µM, first compound 0.003 µM)?
A: 3.34%

Q: And the viability, T/C (second compound 0.03 µM, first compound 0.00949 µM)?
A: 1.17%

Q: What about the viability, T/C (second compound 0.03 µM, first compound 0.03 µM) of the same compound?
A: 0.76%

Q: And the viability, T/C (second compound 0.03 µM, first compound 0.0949 µM)?
A: 0.58%

Q: And the viability, T/C (second compound 0.03 µM, first compound 0.3 µM)?
A: 0.79%

Q: And the viability, T/C (second compound 0.0949 µM, first compound 0.000949 µM)?
A: 50.5%

Q: What about the viability, T/C (second compound 0.0949 µM, first compound 0.003 µM) of the same compound?
A: 2.92%

Q: What about the viability, T/C (second compound 0.0949 µM, first compound 0.00949 µM) of the same compound?
A: 0.55%

Q: What about the viability, T/C (second compound 0.0949 µM, first compound 0.03 µM) of the same compound?
A: 0.56%

Q: And the viability, T/C (second compound 0.0949 µM, first compound 0.0949 µM)?
A: 0.56%

Q: And the viability, T/C (second compound 0.0949 µM, first compound 0.3 µM)?
A: 0.53%

Q: And the viability, T/C (second compound 0.3 µM, first compound 0.000949 µM)?
A: 18.4%

Q: And the viability, T/C (second compound 0.3 µM, first compound 0.003 µM)?
A: 1.07%

Q: What about the viability, T/C (second compound 0.3 µM, first compound 0.00949 µM) of the same compound?
A: 0.76%

Q: And the viability, T/C (second compound 0.3 µM, first compound 0.03 µM)?
A: 0.59%

Q: And the viability, T/C (second compound 0.3 µM, first compound 0.0949 µM)?
A: 0.68%

Q: And the viability, T/C (second compound 0.3 µM, first compound 0.3 µM)?
A: 0.5%

Q: How did the viability, T/C (compound 0.316 µM) turn out when CC(Nc1ccc2c(c1)OCCn1cc(N3C(=O)OCC3C(F)F)nc1-2)C(N)=O (configuration not stated) was run?
A: 101% (2×) and 121% and 106%

Q: And the viability, T/C (compound 10 µM)?
A: 87.9% [middle of 4 runs]

Q: What about the pIC50 (curve of compound) of the same compound?
A: < 5.00

Q: How did the pIC50 (curve of first compound, second compound 0.0316 µM) turn out when C=CC(=O)Nc1cc(Nc2nccc(-c3cn(C)c4ccccc34)n2)c(OC)cc1N(C)CCN(C)C + C#Cc1c(F)ccc2cc(O)cc(-c3ncc4c(N5CC6CCC(C5)N6)nc(OCC56CCCN5CC(F)C6)nc4c3F)c12 was run?
A: < 6.00

Q: And the pIC50 (curve of first compound, second compound 0.1 µM)?
A: < 6.00

Q: And the pIC50 (curve of first compound, second compound 0.316 µM)?
A: < 6.00

Q: And the pIC50 (curve of first compound, second compound 1 µM)?
A: < 6.00

Q: What about the pIC50 (curve of first compound, second compound 3.16 µM) of the same compound?
A: < 6.00

Q: And the pIC50 (curve of first compound, second compound 10 µM)?
A: < 6.00

Q: What about the viability, T/C (second compound 0.0316 µM, first compound 0.00316 µM) of the same compound?
A: 107%

Q: And the viability, T/C (second compound 0.0316 µM, first compound 0.01 µM)?
A: 96%

Q: What about the viability, T/C (second compound 0.0316 µM, first compound 0.0316 µM) of the same compound?
A: 101%

Q: What about the viability, T/C (second compound 0.0316 µM, first compound 0.1 µM) of the same compound?
A: 96.3%

Q: And the viability, T/C (second compound 0.0316 µM, first compound 0.316 µM)?
A: 94.2%

Q: And the viability, T/C (second compound 0.0316 µM, first compound 1 µM)?
A: 94%

Q: And the viability, T/C (second compound 0.1 µM, first compound 0.00316 µM)?
A: 94.8%

Q: And the viability, T/C (second compound 0.1 µM, first compound 0.01 µM)?
A: 103%

Q: And the viability, T/C (second compound 0.1 µM, first compound 0.0316 µM)?
A: 99.8%

Q: What about the viability, T/C (second compound 0.1 µM, first compound 0.1 µM) of the same compound?
A: 110%

Q: What about the viability, T/C (second compound 0.1 µM, first compound 0.316 µM) of the same compound?
A: 90.4%

Q: And the viability, T/C (second compound 0.1 µM, first compound 1 µM)?
A: 88.8%

Q: And the viability, T/C (second compound 0.316 µM, first compound 0.00316 µM)?
A: 108%

Q: And the viability, T/C (second compound 0.316 µM, first compound 0.01 µM)?
A: 92.6%

Q: And the viability, T/C (second compound 0.316 µM, first compound 0.0316 µM)?
A: 114%

Q: And the viability, T/C (second compound 0.316 µM, first compound 0.1 µM)?
A: 105%

Q: What about the viability, T/C (second compound 0.316 µM, first compound 0.316 µM) of the same compound?
A: 105%

Q: What about the viability, T/C (second compound 0.316 µM, first compound 1 µM) of the same compound?
A: 87.2%

Q: What about the viability, T/C (second compound 1 µM, first compound 0.00316 µM) of the same compound?
A: 102%

Q: And the viability, T/C (second compound 1 µM, first compound 0.01 µM)?
A: 93.1%

Q: What about the viability, T/C (second compound 1 µM, first compound 0.0316 µM) of the same compound?
A: 97%

Q: And the viability, T/C (second compound 1 µM, first compound 0.1 µM)?
A: 106%

Q: And the viability, T/C (second compound 1 µM, first compound 0.316 µM)?
A: 97.9%

Q: What about the viability, T/C (second compound 1 µM, first compound 1 µM) of the same compound?
A: 82.8%

Q: What about the viability, T/C (second compound 3.16 µM, first compound 0.00316 µM) of the same compound?
A: 108%

Q: And the viability, T/C (second compound 3.16 µM, first compound 0.01 µM)?
A: 107%

Q: What about the viability, T/C (second compound 3.16 µM, first compound 0.0316 µM) of the same compound?
A: 129%

Q: What about the viability, T/C (second compound 3.16 µM, first compound 0.1 µM) of the same compound?
A: 101%

Q: What about the viability, T/C (second compound 3.16 µM, first compound 0.316 µM) of the same compound?
A: 114%

Q: What about the viability, T/C (second compound 3.16 µM, first compound 1 µM) of the same compound?
A: 106%

Q: And the viability, T/C (second compound 10 µM, first compound 0.00316 µM)?
A: 97.5%

Q: And the viability, T/C (second compound 10 µM, first compound 0.01 µM)?
A: 109%

Q: What about the viability, T/C (second compound 10 µM, first compound 0.0316 µM) of the same compound?
A: 108%

Q: What about the viability, T/C (second compound 10 µM, first compound 0.1 µM) of the same compound?
A: 118%

Q: What about the viability, T/C (second compound 10 µM, first compound 0.316 µM) of the same compound?
A: 91.3%

Q: And the viability, T/C (second compound 10 µM, first compound 1 µM)?
A: 115%
